Source: article PMC4488731 (Viruses, 2015)

Molecular target: T1, EV-A71 2A protease (r2A protease) (Enterovirus A71, UniProt B9VUU3)
T1 sequence (B9VUU3 863-1012 limits assumed): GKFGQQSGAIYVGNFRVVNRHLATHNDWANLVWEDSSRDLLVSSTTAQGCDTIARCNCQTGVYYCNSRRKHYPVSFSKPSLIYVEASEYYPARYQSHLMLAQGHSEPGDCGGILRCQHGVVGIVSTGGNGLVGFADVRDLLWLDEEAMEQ
Format: biochemical
Conditions: 37 °C, 2 h, 5 µg/mL r2A, 10 µg/mL HRP substrate

## CCOC(=O)C1=C(Nc2cc(C)cc(C)c2)OCC1=O [CW-33, Ethyl 2-(3′,5′-dimethylanilino)-4-oxo-4,5-dihydrofuran-3-carboxylate]
  IC50: 53.1 µM
